Measurements as given in patent EP1153612A1, “ANTICANCER AGENT POTENTIATORS” (Tsuruo, Takashi, priority 1999, dated 2000).

Experiments:
[1] = system: human colon adenocarcinoma cell HT-29; assay: Sensitivity of cells to anticancer drug by colony formation method (M phase-synchronized cells, with or without proteasome inhibiting agent); format: cell-based; conditions: for change of cell-killing effect of camptothecin: lactacystin 10 µM 13 hours, camptothecin 4 hours, FIG. 14
Description: In the glucose starvation environment found in the solid cancer, the effect of combined use of the proteasome inhibitor in a human colon adenocarcinoma cell HT-29 with the anticancer drug targeting topoisomerase II was tested.
Concerning culture media, for a culture condition in a normal state, RPMI 1640 medium (Nissui Pharmaceutical Co.-made) to which a 5% FBS (fetal bovine serum) was added and for the culture condition in the glucose starvation state symbolically found in the solid cancer, RPMI 1640 medium (Lifetech Oriental-made), lacking glucose, in which the 5% FBS was added were used, respectively. Culture was carried out using a CO2 incubator (Tabai Espec-made) under conditions of 5% CO2/95% air and humidity 100%.
In order to test sensitivity to the anticancer drug, the cell cycle synchronization culture methodwas employed. Nocodazol (Sigma made) was used to synchronize the cell cycle, cells in a logarithmic proliferation phase were treated with 40 ng/ml Nocodazol for 9 hours, and cells accumulated in cell division phase (Mpahse) were collected by gentle pipetting. M phase-synchronized cells collected through these steps were washed with PBS (phosphate buffered saline) followed by inoculation of 1×10^5 cells per well of 12 well-culture plate.
M phase-synchronized cells were cultured under the normal condition and the glucose starvation condition to conduct treatments with the proteasome inhibiting agent and the anticancer drug as follows. For cells under the glucose starvation condition, the culture medium, to which the proteasome inhibiting agent and the protease inhibiting agent not inhibiting proteasome were added as the control group, and the culture medium, to which no inhibiting agent has been added, was used. For cells under the normal condition, the culture medium, to which each inhibiting agent was not added, was used. After inoculation of cells, culture was carried out for 13 hours in each culture medium. […]
Sensitivity of cells to the anticancer drug was measured using the colony formation method. As described above, cells treated with the proteasome inhibiting agent and the anticancer drug were washed with PBS followed by soaking in trypsin (Lifetech Oriental made) solution and removed from a culture dish to suspend in an ordinary culture medium. These cells were inoculated again in 500 to 5000 cells for a 10 cm culture dish and cultured for 10 to 12 days to form a colony. The colony formed was fixed by 10% formaldehyde solution and stainedwith 0.01% crystal violet (Wako Pure Chemicals made) solution. Number of colony was counted and a Cell survival rate was calculated assuming that the number of colonies untreated with the anticancer drug is 1.
For reference, the proteasome inhibiting agent and the protease inhibiting agent not inhibiting proteasome used as described above were as follows. • (1) Proteasome inhibiting agent • . […] MG115 (carbobenzoxy-L-Leucyl-L-Leucyl-L-Norvalinal): final concentration 2.5 µM (Peptide Institute Inc. made) • . MG132 (carbobenzoxy-L-Leucyl-L-Leucyl-Leucinal) : final concentration 2.5 µM (Peptide Institute Inc. made) • . Lactacystin, final concentration 10 µM (Kindly supplied from The Kitasato Institute made) • (2) Protease inhibiting agent not inhibiting proteasome • . E64, final concentration 25 µM (Peptide Institute Inc. made) • . ZLLal (carbobenzoxy-L-Leucyl-L-Leucinal): final concentration 25 µM (Peptide Institute Inc. made)
The cell culture condition for both M phase-synchronized culture method and culture under the glucose starvation condition was as described in Example 1. M phase-synchronized cells were cultured in the culture medium, to which lactacystin of the final concentration 10 µM was added, or the culture medium, to which this was not added, as the proteasome inhibiting agent under the ordinary condition and the glucose starvation condition, respectively, for 13 hours. […]

[2] = system: human colon cancer cell HT29; assay: Anticancer therapy in human cancer cell-transplanted nude mouse model (size of tumor lump); format: in vivo, nude mouse BALB/cAnNCrj-nu/nu; conditions: Example 5; intraperitoneally three times every 4 days; etoposide 33 mg/kg, lactacystin 40 mg/kg; in combined use lactacystin 5 hours before etoposide; FIG. 11
Excerpt: A human colon cancer cell HT29 was transplanted subcutaneously to a nude mouse to examine a therapeutic effect of combined use of lactacystin, the proteasome inhibiting agent, with etoposide, the anticancer drug targeting topoisomerase II.
As an experimental animal, the nude mouse BALB/cAnNCrj-nu/nu of 8-week old female (Charles River Laboratories product) was used. In order to form a tumor lump in the nude mouse, 1×10^7 HT29 cells was subcutaneously transplanted. After 8 to 10 days of transplanting, the tumor lump of HT29 cells grew to […] and at this point, the therapy was started. […]
The therapy was conducted by dividing the HT29 tumor-transplanted mice into 4 groups to assign 4 animals to 1 group as follows by administering intraperitoneally three times every 4 days: (1) control group untreated with saline, (2) etoposide 33 mg/kg, (3) lactacystin 40 mg/kg, (4) lactacystin 40 mg/kg and etoposide 33 mg/kg. […] Since start of the therapy, a size of the tumor lump was measured to measure effect of the therapy by administration of drugs once every 4 days. […]
The effect of therapy by simultaneous administration of the proteasome inhibiting agent, lactacystin, and the topoisomerase II-targeting anticancer, doxorubicin was examined. […] After start of treatment, once every 4 to 5 days, the size of the tumor lump was measured to measure the effect of treatment by drug administration.

Structure (SMILES): CC(=O)N[C@@H](CSC(=O)[C@]1([C@@H](O)C(C)C)NC(=O)[C@H](C)[C@@H]1O)C(=O)O [lactacystin]
- change of cell-killing effect of bleomycin ([1]; glucose starvation condition, lactacystin 7.5 µM 13 hours, bleomycin 4 hours): enhances the cell-killing effect
- change of cell-killing effect of mitomycin C ([1]; glucose starvation condition, lactacystin 7.5 µM 13 hours, mitomycin C 4 hours): enhances the cell-killing effect of mitomycin C
- change of cell-killing effect of camptothecin ([1]; glucose starvation condition): enhances the cell-killing effect of camptothecin
- effect on etoposide sensitivity ([1]; glucose starvation condition, lactacystin 10 µM, FIG. 3): enhances sensitivity to etoposide
- change of cell-killing effect of cisplatin ([1]; ordinary culture condition and glucose starvation condition, lactacystin 7.5 µM 13 hours, cisplatin 4 hours, FIG. 18): enhances the cell-killing effect of cisplatin
- change of cell-killing effect of camptothecin ([1]; ordinary culture condition): the cell-killing effect thereof is enhanced
- suppression of tumor proliferation (size of the tumor lump) [2]: less suppression of tumor proliferation
